We go through four compounds from ChEMBL document CHEMBL1157899, “Molecular modelling, synthesis and acetylcholinesterase inhibition of ethyl 5-amino-2-methyl-6,7,8,9-tetrahydrobenzo[b][1,8]naphthyridine-3-carboxylate” (Bioorg Med Chem Lett, 2010).

The target in assay [1] is Acetylcholinesterase (Homo sapiens, UniProt P22303). Nature of the assay: Inhibition of human AChE.
Another assay concerns the target Cholinesterase (Equus caballus, UniProt P81908). As to the kind of experiment: Inhibition of Equus caballus BuChE.
The target of assay [2] is Acetylcholinesterase (Electrophorus electricus, UniProt O42275). As to the kind of experiment: Inhibition of electric eel AChE.
Sequence of Acetylcholinesterase (Electrophorus electricus, UniProt O42275) (O42275 whole entry): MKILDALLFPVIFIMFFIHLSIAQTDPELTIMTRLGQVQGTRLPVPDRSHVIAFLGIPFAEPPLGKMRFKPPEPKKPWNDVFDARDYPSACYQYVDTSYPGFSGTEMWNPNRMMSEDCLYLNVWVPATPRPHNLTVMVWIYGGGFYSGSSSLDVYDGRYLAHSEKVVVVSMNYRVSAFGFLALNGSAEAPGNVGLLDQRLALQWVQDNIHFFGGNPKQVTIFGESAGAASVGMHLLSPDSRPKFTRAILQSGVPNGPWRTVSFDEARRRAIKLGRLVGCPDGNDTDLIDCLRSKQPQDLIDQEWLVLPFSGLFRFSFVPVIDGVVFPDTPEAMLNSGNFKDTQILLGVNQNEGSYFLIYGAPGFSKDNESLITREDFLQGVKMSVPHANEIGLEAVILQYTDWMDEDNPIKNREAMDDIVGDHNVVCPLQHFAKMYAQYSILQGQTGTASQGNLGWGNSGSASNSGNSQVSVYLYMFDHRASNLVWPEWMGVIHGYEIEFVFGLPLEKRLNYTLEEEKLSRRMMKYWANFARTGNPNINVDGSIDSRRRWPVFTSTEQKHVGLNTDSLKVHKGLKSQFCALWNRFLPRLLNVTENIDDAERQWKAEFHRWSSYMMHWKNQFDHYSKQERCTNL

Sequence of Cholinesterase (P81908 whole entry): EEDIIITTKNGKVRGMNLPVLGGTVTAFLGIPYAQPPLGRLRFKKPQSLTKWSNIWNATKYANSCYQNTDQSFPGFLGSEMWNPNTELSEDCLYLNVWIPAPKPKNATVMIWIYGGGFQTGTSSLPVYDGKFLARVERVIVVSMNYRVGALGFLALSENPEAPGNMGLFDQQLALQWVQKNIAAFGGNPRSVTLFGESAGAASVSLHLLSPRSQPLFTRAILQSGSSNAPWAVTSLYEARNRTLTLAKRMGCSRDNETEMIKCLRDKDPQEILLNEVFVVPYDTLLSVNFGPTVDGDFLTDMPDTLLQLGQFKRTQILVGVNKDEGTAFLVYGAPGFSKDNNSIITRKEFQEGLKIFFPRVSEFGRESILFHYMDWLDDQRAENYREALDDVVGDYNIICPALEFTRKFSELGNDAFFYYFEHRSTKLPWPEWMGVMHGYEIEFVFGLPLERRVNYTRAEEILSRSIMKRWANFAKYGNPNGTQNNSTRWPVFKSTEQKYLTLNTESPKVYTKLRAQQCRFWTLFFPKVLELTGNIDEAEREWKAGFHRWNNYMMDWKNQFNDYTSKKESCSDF
Sequence of Acetylcholinesterase (Homo sapiens, UniProt P22303) (P22303 whole entry): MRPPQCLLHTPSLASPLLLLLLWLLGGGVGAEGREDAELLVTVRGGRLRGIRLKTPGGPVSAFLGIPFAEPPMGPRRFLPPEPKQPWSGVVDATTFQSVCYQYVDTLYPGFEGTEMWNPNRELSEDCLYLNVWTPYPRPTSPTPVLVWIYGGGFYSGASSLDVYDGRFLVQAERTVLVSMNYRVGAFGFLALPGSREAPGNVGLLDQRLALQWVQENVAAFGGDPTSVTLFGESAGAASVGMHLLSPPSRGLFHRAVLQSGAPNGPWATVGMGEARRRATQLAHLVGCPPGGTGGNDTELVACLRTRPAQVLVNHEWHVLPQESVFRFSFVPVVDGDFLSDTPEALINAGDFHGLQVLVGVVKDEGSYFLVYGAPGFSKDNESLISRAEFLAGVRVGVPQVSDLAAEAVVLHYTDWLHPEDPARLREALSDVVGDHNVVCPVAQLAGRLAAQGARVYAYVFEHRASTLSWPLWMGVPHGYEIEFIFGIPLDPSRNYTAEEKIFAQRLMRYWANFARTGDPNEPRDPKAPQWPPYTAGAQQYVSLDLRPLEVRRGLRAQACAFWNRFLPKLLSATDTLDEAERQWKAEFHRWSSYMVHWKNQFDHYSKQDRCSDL

Regarding `CCOC(=O)c1cc2c(N)c3c(nc2nc1C)CCCC3`, the half-maximal inhibitory concentration (IC50) on Acetylcholinesterase [1] amounted to 0.78 µM; on Cholinesterase (read-out: IC50), 12 µM; against Acetylcholinesterase [2], 0.06 µM.
For the compound `Cc1nc2nc3c(c(N)c2cc1C(=O)O)CCCC3`, the IC50 entry against Cholinesterase was “Not Active”; against Acetylcholinesterase [2], 15 µM.
In the case of `Cc1nc2nc3c(c(N)c2cc1C(=O)[O-])CCCC3.[Na+]`, the concentration for half-maximal inhibition (IC50) result at Cholinesterase was “Not Active”; on Acetylcholinesterase [2], 5.3 µM.
With `CCOC(=O)c1c(C)nc2nc3c(c(N)c2c1-c1ccccc1)CCCC3`, the IC50 at Cholinesterase (read-out: IC50) was 5.03 µM.
